The values that follow come from patent publication US12054500B2, “Arginase inhibitors” (ARCUS BIOSCIENCES, INC., priority 2018, dated 2024).

This test has as its target T1, recombinant human ARG1 (Homo sapiens, UniProt P05089).
T1 sequence (P05089 1-322): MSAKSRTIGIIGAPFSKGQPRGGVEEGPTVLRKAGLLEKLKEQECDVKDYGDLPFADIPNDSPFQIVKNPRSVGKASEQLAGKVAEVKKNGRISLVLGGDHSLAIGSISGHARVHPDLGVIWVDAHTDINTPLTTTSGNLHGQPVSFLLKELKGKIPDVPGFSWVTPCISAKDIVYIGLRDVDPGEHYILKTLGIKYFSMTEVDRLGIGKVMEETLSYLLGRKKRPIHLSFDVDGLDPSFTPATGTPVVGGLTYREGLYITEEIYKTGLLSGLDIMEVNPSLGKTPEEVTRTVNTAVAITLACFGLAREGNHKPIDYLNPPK
Kind of test: Arginase coupled enzymatic assay using recombinant human ARG1. The conditions noted are these: 2 nM ARG1, 0.8 mM L-Arginine, 10 mM sodium phosphate pH 7.4, 37° C.; read-out: Potency: Arginase 1 inhibition IC50. The class given is biochemical. On the procedure:
Measurement of Compound Potency by Arginase Coupled Enzymatic Assay Using Recombinant Human ARG1 and ARG2
Purified recombinant human ARG1 and ARG2 were prepared in 50 mM Bicine, pH 8.5, 100 μM MnCl2, 20% glycerol and 1 mM DTT at a final stock concentration of 14.4 μM and 7.56 μM respectively. 2.5 nM of either ARG1 or ARG2 were incubated with varying concentrations of compounds in 10 mM sodium phosphate, pH 7.4, 0.1 mM MnCl2 and 2.5% DMSO in a total volume of 40 μl in a 384-well microplate (Corning™ #3640) at 37° C. for 1 h. The arginase enzymatic reaction was initiated by addition of 10 μl of 4 mM L-Arginine pre-incubated in 10 mM sodium phosphate, pH 7.4, and 0.1 mM MnCl2 at 37° C. into the enzyme and compound mixture, giving the final reaction conditions: 2 nM of ARG1 or ARG2 and 0.8 mM of L-Arginine in 10 mM sodium phosphate, pH 7.4, 0.1 mM MnCl2 and 2% DMSO with varying concentrations of compounds. Following 2 h incubation at 37° C., the arginase enzymatic reaction was stopped by transfer of 10 μl of reaction into 10 μl of detection mix (204 μM Amino-2-Borono-6-Hexanoic Acid, 0.25 μl Arginase Enzyme mix, 0.25 μl Arginase Developer, 0.25 μl Arginase Converter Enzyme in Arginase Assay Buffer from Arginase Activity Colorimetric Assay Kit, BioVision Inc. #K755-100) in a transparent 384-well microplate (Greiner #781801). The plate was immediately put into a plate reader (Synergy™ Neo2 Multi-Mode Microplate Reader) to monitor absorption at 570 nm at 37° C. Absorption values at 12-20 min were used to calculate compound potency. The value of the DMSO blank (MIN inhibition=100% activity) was used as a negative control. The positive control was established by adding 8 μl of enzyme and DMSO mix into 10 μl of detection mix followed by addition of 2 μl of L-Arginine (MAX inhibition=0% activity). To calculate the percent activity, Equation 1 was used. Abs570nm is the value at a given compound concentration:
A counter-screen was performed to identify any inhibition of the coupling enzymes by the test compounds. 10 μl of 0.26 mM of urea with varying concentrations of compounds in 10 mM sodium phosphate, pH 7.4, 0.1 mM MnCl2 and 2% DMSO were added into 10 μl of detection mix in place of the arginase enzymatic reaction mix. Absorption was monitored at 570 nm as described above. The values of a no substrate blank (without urea; MAX inhibition=0% activity) and a DMSO blank (MIN inhibition=100% activity) were used as positive and negative controls respectively. […] Inactivity in the counter-screen was used to confirm that results accurately reflected IC50 values for ARG1 and ARG2.
For the compound `NCCN1C[C@@H]2C[C@@](N)(C(=O)O)[C@@H](CCCB(O)O)[C@@H]2C1`, the IC50 lay within 0.1 to 1 µM. For `N[C@@]1(C(=O)O)C[C@H]2CNC[C@H]2[C@@H]1CCCB(O)O`, the concentration for half-maximal inhibition (IC50) is under 0.1 µM. Under `C[C@H](N)C(=O)N1C[C@@H]2C[C@@](N)(C(=O)O)[C@@H](CCCB(O)O)[C@@H]2C1` stands 0.1 to 1 µM; under `C[C@H](N)C(=O)N1C[C@@H]2C[C@](N)(C(=O)O)[C@H](CCCB(O)O)[C@@H]2C1`, 0.1 to 1 µM. As for `N[C@]1(C(=O)O)C[C@H]2CN(C(=O)[C@@H]3CCCN3)C[C@H]2[C@H]1CCCB(O)O`, the IC50 lay within 0.1 to 1 µM. With `N[C@@]1(C(=O)O)C[C@H]2CN(C3COC3)C[C@H]2[C@@H]1CCCB(O)O`, the IC50 was 0.1 to 1 µM.

Regarding `N[C@@]1(C(=O)O)C[C@H]2CN(C(CO)CCl)C[C@H]2[C@@H]1CCCB(O)O` (some centres unmarked), the 50% inhibitory concentration (IC50) is under 0.1 µM.

`CC1(C)[C@H]2C[C@@H]3OB(CCC[C@H]4[C@@H]5CNC[C@@H]5C[C@@]4(N)C(=O)O)O[C@]3(C)[C@@H]1C2`: the 50% inhibitory concentration (IC50) lay in the range of 0.1 to 1 µM.

The IC50 is the concentration that inhibits the measured activity by half.
